Assay results taken from publication PMC5442318, “Hundreds of dual-stage antimalarial molecules discovered by a functional gametocyte screen” (Nature Communications, 2017).
Where two headings read alike, the source gives them in different places.

Experiments:
HepG2 cells = assay: HepG2 cytotoxicity assay; type: cell-based; settings: mean
Summary of the method: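 After compound incubation, plates and CellTiter-Glo reagent were brought to room temperature for 30 min. The reagent was then added, and luminescence was read after a 10 min room-temperature stabilization.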

[1] = tested on: P. falciparum asexual blood stages; settings: read-out: Pf Asexual blood stages XC50, cited from earlier work
[2] = tested on: P. falciparum stage V female gametocytes; assay: P. falciparum female gametocyte activation assay (Pf FGAA), 24 h or 48 h preincubation, Pfs25 expression readout; type: cell-based, Plasmodium falciparum NF54; settings: mean, read-out: Gametocytes mean Pf FGAA IC50
Summary of the method: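 Purified stage V gametocytes from P. falciparum NF54 gametocyte cultures were exposed to compounds for 24 h or 48 h at 37 °C under 3% O2/5% CO2, then activated by temperature drop plus xanthurenic acid. Activated females were stained with Cy3-anti-Pfs25 (0.5 μg ml^−1) for 24 h at 26 °C and counted by high-content imaging; pIC50 by nonlinear regression.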

[3] = tested on: P. falciparum stages IV–V gametocytes; assay: Gametocytocidal ATP-depletion assay (gametocyte ATP bioluminescence); type: cell-based, Plasmodium falciparum
Summary of the method: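 Purified stage IV–V gametocytes (12,500/well) incubated with compound for 48 h at 37 °C under 3% O2/5% CO2. ATP measured by BacTiter-Glo luminescence as a viability surrogate; hits tested at 2 μM single concentration.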

[4] = TCAMS asexual blood stage data, ref 1 (Gamo, F. J. et al., Nature 465, 305-310, 2010)
[5] = P. falciparum female gametocytes
[6] = TCAMS data, ref 1 (Gamo et al., 2010)

| Structure (SMILES) | HepG2 cells mean TOX50 (HepG2 cells; HepG2 cells) [µM] | IC50 [1, 4] [nM] | IC50 [2, 5] [nM] | Gametocytes mean ATP inhibition at 2µM [3] [%] | HepG2 cells mean TOX50 (HepG2 cells) [µM] | IC50 [1, 6] [nM] | IC50 [2] [nM] | Gametocytes mean ATP inhibition at 2µM (%) [3] [%] |
| --- | --- | --- | --- | --- | --- | --- | --- | --- |
| CC(C)c1ccc(CN2CCC(CNC(=O)c3cc(-c4cccc(Cl)c4)cs3)C2)cc1.O=C(O)C(F)(F)F (centres unmarked) [TCMDC-134438] | 6.53 | 750 | 600 | -9.36 | – | – | – | – |
| CC(C)c1ccc(CN2CCC(CNC(=O)c3cc(-c4ccc(N(C)C)cc4)cs3)C2)cc1.O=C(O)C(F)(F)F (centres unmarked) [TCMDC-134440] | 5.85 | 1250 | 710 | -6.60 | – | – | – | – |
| CC(C)(C)c1ccc(CN2CCC(CNC(=O)c3cc(-c4ccccc4C(F)(F)F)cs3)C2)cc1.O=C(O)C(F)(F)F (centres unmarked) [TCMDC-134441] | 9.77 | 1240 | 690 | -17.21 | – | – | – | – |
| CC(C)(C)c1ccc(CN2CCC(CNC(=O)c3cc(-c4cccc(C(F)(F)F)c4)cs3)C2)cc1.O=C(O)C(F)(F)F (centres unmarked) [TCMDC-134442] | 6.39 | 1030 | 950 | -16.04 | – | – | – | – |
| CC(C)(C)c1ccc(CN2CCC(CNC(=O)c3cc(-c4ccccc4F)cs3)C2)cc1.O=C(O)C(F)(F)F (centres unmarked) [TCMDC-134443] | 9.30 | 560 | 830 | -4.04 | – | – | – | – |
| CC(C)(C)c1ccc(CN2CCC(CNC(=O)c3cc(-c4cccc(F)c4)cs3)C2)cc1.O=C(O)C(F)(F)F (centres unmarked) [TCMDC-134444] | 6.61 | 900 | 1320 | 0.99 | – | – | – | – |
| CC(C)(C)c1ccc(CN2CCC(CNC(=O)c3cc(-c4ccccc4Cl)cs3)C2)cc1.O=C(O)C(F)(F)F (centres unmarked) [TCMDC-134445] | 6.17 | 860 | 1010 | -16.96 | – | – | – | – |
| CC(C)(C)c1ccc(CN2CCC(CNC(=O)c3cc(-c4cccc(Cl)c4)cs3)C2)cc1.O=C(O)C(F)(F)F (centres unmarked) [TCMDC-134446] | 7.42 | 1160 | 990 | -13.17 | – | – | – | – |
| COc1cccc(-c2csc(C(=O)NCC3CCN(Cc4ccc(C(C)(C)C)cc4)C3)c2)c1.O=C(O)C(F)(F)F (centres unmarked) [TCMDC-134447] | 5.78 | 1180 | 650 | -7.16 | – | – | – | – |
| CCc1ccccc1-c1csc(C(=O)NCC2CCN(Cc3ccc(C(C)(C)C)cc3)C2)c1.O=C(O)C(F)(F)F (centres unmarked) [TCMDC-134448] | 7.67 | 1150 | 1200 | -14.62 | – | – | – | – |
| CN(C)c1ccc(-c2csc(C(=O)NCC3CCN(Cc4ccc(C(C)(C)C)cc4)C3)c2)cc1.O=C(O)C(F)(F)F (centres unmarked) [TCMDC-134449] | 7.24 | 990 | 600 | -20.17 | – | – | – | – |
| NCCCCNc1cc(-c2ccnc(Nc3cccc(Cl)c3)n2)ccn1 [TCMDC-134683] | 0.67 | 280 | 1460 | -0.61 | – | – | – | – |
| COc1cccc(OC)c1CN1CCC(N(C)CCCCCCCCN2CCC(OC(=O)Nc3ccccc3-c3ccccc3)CC2)CC1 [TCMDC-134684] | 1.93 | 460 | 2260 | 22.14 | – | – | – | – |
| COc1cccc(OC)c1CN1CCC(N(C)CCCCCCCCCN2CCC(OC(=O)Nc3ccccc3-c3ccccc3)CC2)CC1 [TCMDC-134690] | 1.91 | 320 | 1310 | 15.06 | – | – | – | – |
| Cc1cccc(Nc2nc(N[C@@H]3CCCNC3)nc3cc[nH]c(=O)c23)c1.O=C(O)C(F)(F)F [TCMDC-134835] | 3.25 | 680 | 1850 | -27.53 | – | – | – | – |
| NCCCNc1nc(Nc2ccc(C(F)(F)F)cc2F)c2c(=O)[nH]ccc2n1.O=C(O)C(F)(F)F [TCMDC-135056] | 9.30 | 1050 | 1600 | -14.04 | – | – | – | – |
| Fc1ccc(OC2CN(c3nccc(NCc4ccccc4Cl)n3)C2)cc1 [TCMDC-135110] | 83.45 | 900 | 5220 | 44.31 | – | – | – | – |
| COc1ccccc1CNc1ccnc(N2CC(Oc3ccc(F)cc3)C2)n1 [TCMDC-135118] | 73.68 | 850 | 4070 | 42.55 | – | – | – | – |
| CCn1c(Sc2ccc([N+](=O)[O-])c(C#N)c2)nnc1-c1cccc(Cl)c1 [TCMDC-135234] | 18.80 | 870 | 1340 | 46.72 | – | – | – | – |
| Cc1occc1C(=O)Nc1nc(-c2ccccn2)nc2ccsc12 [TCMDC-135244] | >100 | 900 | 60 | 87.21 | – | – | – | – |
| CCn1c(-c2nonc2N)nc2c(-c3cc4ccccc4s3)ncc(C(=O)N3CCC(N)C3)c21.O=C(O)C(F)(F)F (centres unmarked) [TCMDC-135281] | 1.00 | 870 | 450 | 66.75 | – | – | – | – |
| Cc1[nH]c(C)c(-c2ccc(CCc3ccc(F)cc3F)cc2)c(=O)c1Cl [TCMDC-135462] | >100 | 16 | 13300 | 51.34 | – | – | – | – |
| CNCCNc1nccc(N2CCc3ncnc(Nc4ccc(OCc5cccc(F)c5)c(Cl)c4)c3C2)n1 [TCMDC-135478] | 5.62 | 200 | 1670 | -9.54 | – | – | – | – |
| CC(C)N1CCN(C(CN2CCN(CCCOc3ccc(-c4ccccc4)cc3)CC2)c2ccc(F)cc2)CC1.Cl (centres unmarked) [TCMDC-135497] | 2.29 | 680 | 1420 | 6.50 | – | – | – | – |
| COc1ccc(-c2cnc3[nH]cc(-c4ccncc4)c3c2)cc1OC [TCMDC-135853] | 11.79 | 130 | 2260 | 76.41 | – | – | – | – |
| COc1ccc2ccccc2c1CCCCN1CCN(CC(c2ccc(F)cc2)N2CCC2)CC1.O=C(O)C(F)(F)F (centres unmarked) [TCMDC-135867] | – | – | – | – | 4.37 | 760 | 5860 | -0.41 |
| COc1cc(/C=C(\C2=NC(=O)CS2)c2nc3cccnc3n2C)ccc1O [TCMDC-135917] | – | – | – | – | 21.14 | 1000 | 720 | 48.81 |
| CCn1c(-c2nonc2N)nc2c(-c3cccc(NC(=O)Nc4ccc(C(F)(F)F)cc4)c3)ncc(OCCCN)c21.O=C(O)C(F)(F)F [TCMDC-136179] | – | – | – | – | 5.62 | 1050 | 910 | -5.44 |
| CCn1c(-c2nonc2N)nc2c(-c3cccc(NC(=O)Nc4cccc(Cl)c4)c3)ncc(OCCCN)c21.O=C(O)C(F)(F)F [TCMDC-136193] | – | – | – | – | 80.36 | 940 | 1180 | -8.58 |
